What all share (settings): human
Series [1] deals with Hepatotoxicity. Kind of series: FDA HLAED, liver enzyme composite activity.
The test system of series [2] is Hepatotoxicity. The series can be described thus: FDA HLAED, alkaline phosphatase increase.
Series [3] has as its system Hepatotoxicity. Kind of series: FDA HLAED, serum glutamic oxaloacetic transaminase (SGOT) increase.
Series [4] deals with Hepatotoxicity. Kind of series: FDA HLAED, gamma-glutamyl transferase (GGT) increase.
Series [5] concerns Hepatotoxicity. The series can be described thus: FDA HLAED, serum glutamic pyruvic transaminase (SGPT) increase.
In series [6] the test system is Hepatotoxicity. The series can be described thus: FDA HLAED, lactate dehydrogenase (LDH) increase.
For GGT Increase - Index Value in this document: reference of the scale not given here.
For LDH Increase - Index Value in this document: reference of the scale not given here.

Consider `CC1=C(C(=O)O)N2C(=O)[C@@H](NC(=O)[C@H](N)c3ccc(O)cc3)[C@H]2SC1` [CEFADROXIL], for which, in the series with Hepatotoxicity [1], the “Composite Activity - Active” value is listed as 0, the “Composite Activity - Marginal” value was found to be 0 and the “Composite Activity - Score” value is listed as “Inactive”. Also, in the series with Hepatotoxicity [2], the “Alkaline Phosphatase Increase - Activity Score” value is “Inactive”, the “Alkaline Phosphatase Increase - Index Value” was 0 and the “Alkaline Phosphatase Increase - Number of Reports” value is under 4. Also, in the series with Hepatotoxicity [3], the “SGOT Increase - Activity Score” value is “Inactive”, the “SGOT Increase - Index Value” was determined as 0 and the “SGOT Increase - Number of Reports” value was under 4. Further, in the series on Hepatotoxicity [4], the “GGT Increase - Activity Score” value was “Inactive”, the “GGT Increase - Index Value” is reported as 0 and the “GGT Increase - Number of Reports” value is on record as under 4. Moreover, in the series with Hepatotoxicity [5], the “SGPT Increase - Activity Score” value is “Inactive”, the “SGPT Increase - Index Value” worked out at 0 and the “SGPT Increase - Number of Reports” value is under 4. Also, in the series with Hepatotoxicity [6], the “LDH Increase - Activity Score” value is given as “Inactive”, the “LDH Increase - Index Value” is listed as 0 and the “LDH Increase - Number of Reports” value is under 4.

Turning to `Cn1nnnc1SCC1=C(C(=O)[O-])N2C(=O)[C@@H](NC(=O)[C@H](OC=O)c3ccccc3)[C@H]2SC1.[Na+]` [CEFAMANDOLE NAFATE], in the series with Hepatotoxicity [1], the “Composite Activity - Active” value is recorded as 0, the “Composite Activity - Marginal” value is 0 and the “Composite Activity - Score” value was “Inactive”. Moreover, in the series on Hepatotoxicity [2], the “Alkaline Phosphatase Increase - Activity Score” value is listed as “Inactive”, the “Alkaline Phosphatase Increase - Index Value” worked out at 0 and the “Alkaline Phosphatase Increase - Number of Reports” value is recorded as under 4. In the series with Hepatotoxicity [3], the “SGOT Increase - Activity Score” value is listed as “Inactive”, the “SGOT Increase - Index Value” stood at 0 and the “SGOT Increase - Number of Reports” value is listed as under 4. Moreover, in the series with Hepatotoxicity [4], the “GGT Increase - Activity Score” value was “Inactive”, the “GGT Increase - Index Value” is given as 0 and the “GGT Increase - Number of Reports” value is on record as under 4. For the same compound, in the series on Hepatotoxicity [5], the “SGPT Increase - Activity Score” value is recorded as “Inactive”, the “SGPT Increase - Index Value” turned out to be 0 and the “SGPT Increase - Number of Reports” value is reported as under 4. Further, in the series with Hepatotoxicity [6], the “LDH Increase - Activity Score” value is recorded as “Inactive”, the “LDH Increase - Index Value” was found to be 0 and the “LDH Increase - Number of Reports” value was under 4.

In the case of `Cn1nnnc1SCC1=C(C(=O)O)N2C(=O)[C@@H](NC(=O)[C@H](O)c3ccccc3)[C@H]2SC1` [CEFAMANDOLE], in the series with Hepatotoxicity [1], the “Composite Activity - Active” value came out at 0, the “Composite Activity - Marginal” value is 0 and the “Composite Activity - Score” value is listed as “Inactive”. Moreover, in the series on Hepatotoxicity [2], the “Alkaline Phosphatase Increase - Activity Score” value is “Inactive”, the “Alkaline Phosphatase Increase - Index Value” came out at 0 and the “Alkaline Phosphatase Increase - Number of Reports” value is on record as under 4. Moreover, in the series with Hepatotoxicity [3], the “SGOT Increase - Activity Score” value was “Inactive”, the “SGOT Increase - Index Value” came out at 0 and the “SGOT Increase - Number of Reports” value is recorded as under 4. In the series on Hepatotoxicity [4], the “GGT Increase - Activity Score” value was “Inactive”, the “GGT Increase - Index Value” turned out to be 0 and the “GGT Increase - Number of Reports” value was under 4. In the series with Hepatotoxicity [5], the “SGPT Increase - Activity Score” value is reported as “Inactive”, the “SGPT Increase - Index Value” worked out at 0 and the “SGPT Increase - Number of Reports” value was under 4. Also, in the series with Hepatotoxicity [6], the “LDH Increase - Activity Score” value is “Inactive”, the “LDH Increase - Index Value” is given as 0 and the “LDH Increase - Number of Reports” value was under 4.

In the case of `C=CC1=C(C(=O)O)N2C(=O)[C@@H](NC(=O)/C(=N\OCC(=O)O)c3csc(N)n3)[C@H]2SC1` [CEFIXIME], in the series with Hepatotoxicity [1], the “Composite Activity - Active” value is 0, the “Composite Activity - Marginal” value is 0 and the “Composite Activity - Score” value is given as “Inactive”. In addition, in the series with Hepatotoxicity [2], the “Alkaline Phosphatase Increase - Activity Score” value is “Inactive”, the “Alkaline Phosphatase Increase - Index Value” was found to be 13.7 and the “Alkaline Phosphatase Increase - Number of Reports” value is reported as under 4. For the same compound, in the series with Hepatotoxicity [3], the “SGOT Increase - Activity Score” value is “Inactive”, the “SGOT Increase - Index Value” was determined as 0.4 and the “SGOT Increase - Number of Reports” value is reported as “>= 4”. Besides, in the series with Hepatotoxicity [4], the “GGT Increase - Activity Score” value is “Inactive”, the “GGT Increase - Index Value” stood at 0 and the “GGT Increase - Number of Reports” value is under 4. In addition, in the series with Hepatotoxicity [5], the “SGPT Increase - Activity Score” value is reported as “Inactive”, the “SGPT Increase - Index Value” is given as 0.4 and the “SGPT Increase - Number of Reports” value is on record as “>= 4”. Besides, in the series with Hepatotoxicity [6], the “LDH Increase - Activity Score” value is recorded as “Inactive”, the “LDH Increase - Index Value” is reported as 0.1 and the “LDH Increase - Number of Reports” value is under 4.

As to `CO[C@@]1(NC(=O)CSCC#N)C(=O)N2C(C(=O)O)=C(CSc3nnnn3C)CS[C@@H]21` [CEFMETAZOLE], in the series on Hepatotoxicity [1], the “Composite Activity - Active” value is listed as 0, the “Composite Activity - Marginal” value is 0 and the “Composite Activity - Score” value was “Inactive”. Moreover, in the series on Hepatotoxicity [2], the “Alkaline Phosphatase Increase - Activity Score” value was “Inactive”, the “Alkaline Phosphatase Increase - Index Value” came to 0.1 and the “Alkaline Phosphatase Increase - Number of Reports” value is on record as under 4. In addition, in the series on Hepatotoxicity [3], the “SGOT Increase - Activity Score” value was “Inactive”, the “SGOT Increase - Index Value” was 0 and the “SGOT Increase - Number of Reports” value was under 4. Also, in the series on Hepatotoxicity [4], the “GGT Increase - Activity Score” value was “Inactive”, the “GGT Increase - Index Value” came to 0 and the “GGT Increase - Number of Reports” value was under 4. For the same compound, in the series on Hepatotoxicity [5], the “SGPT Increase - Activity Score” value was “Inactive”, the “SGPT Increase - Index Value” was 0 and the “SGPT Increase - Number of Reports” value was under 4. For the same compound, in the series with Hepatotoxicity [6], the “LDH Increase - Activity Score” value is “Inactive”, the “LDH Increase - Index Value” came out at 25.5 and the “LDH Increase - Number of Reports” value was under 4.

In the case of `O=C(O)C1=C(CSc2nnnn2CS(=O)(=O)O)CS[C@@H]2[C@H](NC(=O)[C@H](O)c3ccccc3)C(=O)N12` [CEFONICID], in the series on Hepatotoxicity [1], the “Composite Activity - Active” value was 0, the “Composite Activity - Marginal” value was 0 and the “Composite Activity - Score” value is reported as “Inactive”. In addition, in the series with Hepatotoxicity [2], the “Alkaline Phosphatase Increase - Activity Score” value is listed as “Inactive”, the “Alkaline Phosphatase Increase - Index Value” is 12.7 and the “Alkaline Phosphatase Increase - Number of Reports” value is given as under 4. In the series on Hepatotoxicity [3], the “SGOT Increase - Activity Score” value is “Inactive”, the “SGOT Increase - Index Value” was 0 and the “SGOT Increase - Number of Reports” value is under 4. In the series on Hepatotoxicity [4], the “GGT Increase - Activity Score” value is listed as “Inactive”, the “GGT Increase - Index Value” is 0 and the “GGT Increase - Number of Reports” value was under 4. In the series on Hepatotoxicity [5], the “SGPT Increase - Activity Score” value is reported as “Inactive”, the “SGPT Increase - Index Value” was 0 and the “SGPT Increase - Number of Reports” value was under 4. Also, in the series with Hepatotoxicity [6], the “LDH Increase - Activity Score” value is “Inactive”, the “LDH Increase - Index Value” stood at 0 and the “LDH Increase - Number of Reports” value is given as under 4.
